Measured values as given in patent US20260265316A1, “IMMUNOTHERAPEUTIC METHODS, COMPOUNDS, AND COMPOSITIONS FOR TREATING OR PREVENTING CELIAC DISEASE” (DBV Technologies, priority 2023, published 2026).

Experiments:
[1] = Description: Freeze-dried aliquots of the three gliadin polypeptide constructs Cv6, Av6, and 4K, as well as the four building blocks BB1, BB2a, BB3a, and BB4a were reconstituted in pure water, loaded on a PET-Ti backing film and dried in an oven (at ~30° C.). Immediately after drying, dry deposits were reconstituted at five different molarities (approximately 1.8, 0.91, 0.45, 0.091 or 0.045 mM) by pipetting up and down with either pure water (A), PBS 1× (B), or artificial perspiration (C). The concentration in soluble material was measured by HPLC at 215 nm from the solutions recovered from PET-Ti backing films. Data are median+interquartile range of the different molarities tested. Data are expressed as the percentage of soluble material recovered, based on the expected concentration (all values above 100% were set to 100).
Immediately after drying, dry deposits were reconstituted at five different concentrations (20, 10, 5, 1 and 0.5 mg/mL) by pipetting up and down with either pure water (A), PBS 1× (B), or artificial perspiration (C). The concentration in soluble material was measured by HPLC at 215 nm from the solutions recovered from PET-Ti backing films. Data are presented as median+interquartile range of the different molarities tested. Data are expressed as the percentage of soluble material recovered, based on the expected concentration (all values above 100% were set to 100). (D) As an illustration, photographs of the reconstitution of dry deposits with pure water are shown and annotated.
Immediately after drying, deposits were reconstituted by pipetting up and down with each of pure water, PBS 1× at pH 7.0, and artificial perspiration at pH 4.5, each at five different molarities (approximately 1.8, 0.91, 0.45, 0.091, and 0.045 mM). The concentration in soluble material was measured by HPLC at 215 nm.
Immediately after drying, patch deposits were reconstituted by pipetting up and down with each of pure water, PBS 1× at pH 7.0, and artificial perspiration at pH 4.5, at five different concentrations (20, 10, 5, 1, and 0.5 mg/mL). The concentration in soluble material was measured by HPLC at 215 nm.

[2] = system: circulating gluten-specific CD4+ T cells in whole blood of HLA-DQ2+ CeD patients; assay: Whole blood IL-2 cytokine release assay, HLA-DQ2+ CeD participants; assay type: cell-based, human; settings: HLA-DQ2+ donors; whole blood, 24 hours
From the text: FIGS. 10A-10B are graphs depicting the evaluation of the ability of various molarities of three gliadin polypeptides (Cv6, Av6, and 4K), two peptide mixes containing either the four individual building blocks BB1, BB2a, BB3a and BB4a (BB1-4a) or two Nexvax2 peptides (Nex01/02), and six individual building blocks or peptides (BB1, BB2a, BB3a, BB4a, Nex01, and Nex02) to restimulate gluten-specific T cell collected from HLA-DQ2+ CeD patients using a whole blood IL-2 release assay. The whole blood cytokine release assay was performed in six HLA-DQ2+ participants with biopsy-confirmed celiac disease. Whole blood was stimulated with the three gliadin polypeptide constructs Cv6, Av6, and 4K at 10, 2.5, and 0.5 μM final molarities, as indicated. Alternatively, whole blood was stimulated with a mix of peptides containing either the four building blocks BB1, BB2a, BB3a, and BB4a (BB1-4a) or Nex01 and Nex 02 (Nex01/02) at 10, 2.5, and 0.5 μM final molarities. Building blocks (BB1, BB2a, BB3a, and BB4a), Nex01, and Nex02 were also tested as individual peptides, at a single concentration of 10 μM. After 24 hours of incubation, the concentration of IL-2 was quantified from plasma using an MSD IL-2 S-plex ELISA. Data are expressed in femtogram/mL of plasma (A), or as fold change from the negative control (PBS 1×) (B). Symbols represent individual participants (patient ID); bars represent median+interquartile range of individual values.
(§1) The overarching objective of this assay was to validate that the polypeptide constructs (Cv6, Av6, and 4K) can be recognized and processed by human APCs, and they can then promote the activation of gluten-specific effector/memory CD4^+ T cells in CeD patients. A Cytokine Release Assay (CRA) was used (previously described in the literature: Anderson et al., Clinical & Experimental Immunology, 2021 June; 204(3): 321-334; and in Hardy et al., Frontiers in Immunology, 2021, Vol. 12, Article 661662, the entire contents of each of which are incorporated by reference herein). This assay quantifies IL-2 produced by circulating gluten-specific CD4^+ T cells present in the blood of CeD patients upon in vitro stimulation with gluten-derived antigens. Due to the extremely high sensitivity of this CRA, no oral exposure to gluten was required prior to blood sampling.
(§2) Informed consent was obtained from all subjects prior to blood collection.
(§3) Unfractionated blood (225 μL per well of a 96-well plate) was then rapidly restimulated for 24 hours with each of three of the polypeptide constructs provided herein (SEQ ID NO:23 wherein X is C [Cv6, i.e., SEQ ID NO:49], SEQ ID NO:23 wherein X is A [Av6, i.e., SEQ ID NO:50], and SEQ ID NO:46 [4K]) and with each of four individual building blocks (SEQ ID NO:15 wherein Z is E [BB1], SEQ ID NO:16 wherein Z is E [BB2a], SEQ ID NO:20 wherein Z is E [BB3a], and SEQ ID NO:18 wherein Z is E [BB4a]). The concentrations of the polypeptide constructs ranged from 0.5 to 10 micromolar, and the concentration for each individual building block was 10 micromolar. […] These two peptides comprise an N-terminal pyroglutamate and a C-terminal amide. Nex01 and Nex02 were the two gliadin peptides used in the Nexvax2 immunotherapeutic vaccine that was intended to restore immune tolerance to gluten in HLA-DQ2.5+ CeD patients. A positive control consisted of blood cells stimulated with phytohemagglutinin (PHA) (10 μg/mL) which activates all T cells regardless of their antigen specificity (i.e., a polyclonal activator). Negative controls consisted of cells treated with buffer only (PBS 1×).
(§4) After incubation for 24 hours at 37° C. and 5% CO2, plasma was separated from whole blood by centrifugation. Plasma was collected from each well and replicates (n=6 replicates per test) pooled. All plasma samples were frozen at −80° C. until analysis. Single plasma aliquots (100 μL) were thawed and analyzed in duplicate using MSD IL-2 S-plex according to the manufacturer's instructions.

[3] = system: circulating gluten-specific CD4+ T cells in whole blood of HLA-DQ8+ CeD patients; assay: Whole blood IL-2 cytokine release assay, HLA-DQ8+ CeD participants; assay type: cell-based, human; settings: HLA-DQ8+ donors; whole blood, 24 hours
From the text: FIGS. 11A-11B are graphs depicting the evaluation of the ability of various molarities of three gliadin polypeptides (Cv6, Av6, and 4K), two peptide mixes containing either the four individual building blocks BB1, BB2a, BB3a and BB4a (BB1-4a) or two Nexvax2 peptides (Nex01/02), and six individual building blocks or peptides (BB1, BB2a, BB3a, BB4a, Nex01, and Nex02) to restimulate gluten-specific T cell collected from HLA-DQ8+ CeD patients using a whole blood IL-2 release assay. The whole blood cytokine release assay was performed in four HLA-DQ8+ participants with biopsy-confirmed celiac disease as described in FIG. 10. Data are expressed in femtogram/mL of plasma (A), or as fold change from the negative control (PBS 1×) (B). Symbols represent individual participants (patient ID); bars represent the median+interquartile range of individual values.
as §1, §2, §3, §4

Row | Substance | median percentage of soluble material recovered from the patch backing film [1] | IL-2 response (in words) [2] | IL-2 response (in words) [3]
1 | H-PQQPFPQPEQPFPWQPQ-NH2 [BB3a] | 93-100% | potent IL-2 responses | no or low responses
2 | Ac-QLQPFPQPELPYPQPELPYPQPELPYPQPQP-NH2 [BB1] | 93-100% | potent IL-2 responses | no or low responses
